What all share (test): cells
What all share (set-up): Anti-proliferation, 10-point dose response, CellTiter-Glo luminescence (MTT stated for KM12(Luc)), GI50 fitted in Prism

One assay deals with A549. Particulars: Homo sapiens, A549, 72 h, read-out: GI50 (µM) a.
For a further assay, the system named is AGS. Particulars: Homo sapiens, AGS, 72 h, read-out: GI50 (µM) a.
A further assay concerns GIST-T1. Particulars: Homo sapiens, GISTT1, 72 h, read-out: GI50 (µM) a.
The next assay has as its system HEP3B. Particulars: Homo sapiens, Hep3B, 72 h, read-out: GI50 (µM) a.
The test system of another assay is LNCaP. Particulars: Homo sapiens, LNCaP, 72 h, read-out: GI50 (µM) a.
For the next assay, the system named is MKN28. Conditions: Homo sapiens, MKN-28, 72 h, read-out: GI50 (µM) a.
A further assay relates to NCI-H2009. Conditions: Homo sapiens, NCI-H2009, 72 h, read-out: GI50 (µM) a.
For a further assay, the system named is NCI-H23. Particulars: Homo sapiens, NCI-H23, 72 h, read-out: GI50 (µM) a.
For another assay, the system named is NCI-H417. Particulars: Homo sapiens, NCI-H417, 72 h, read-out: GI50 (µM) a.
In another assay the test system is OCI-AML3. Conditions: Homo sapiens, OCI-AML-3, 72 h, read-out: GI50 (µM) a.
A further assay relates to SW620. Conditions: Homo sapiens, SW-620, 72 h, read-out: GI50 (µM) a.
Another assay deals with U251. Conditions: Homo sapiens, U-251, 72 h, read-out: GI50 (µM) a.

Consider `COc1cc(CCc2cc(NC(=O)c3ccc(N4C[C@@H](C)N[C@@H](C)C4)cc3)n[nH]2)cc(OC)c1` [AZD4547], for which the GI50 in the assay on A549 was 11.6 µM; in the assay on AGS it was 58.1 µM; in the assay with GIST-T1, 1.09 µM; with HEP3B, 19.7 µM; with LNCaP, 22.7 µM; in the assay with MKN28, 10.9 µM. Further, the GI50 with NCI-H2009 amounted to 50 µM; with NCI-H23, 10.8 µM; in the assay on NCI-H417 it was 5.99 µM; in the assay with OCI-AML3 it was 6.75 µM; in the assay with SW620, 11 µM; in the assay with U251, 11.6 µM.

These data come from article PMC8591201, “Anti-Tumor Activity of AZD4547 Against NTRK1 Fusion Positive Cancer Cells Through Inhibition of NTRKs” (Frontiers in Oncology, 2021).
